Measurements taken from publication PMC6943629, “Binding of Gold(III) Porphyrin by the Pro-metastatic Regulatory Protein Human Galectin-3” (Molecules, 2019).
Where two headings read alike, the source gives them in different places. Each block holds one compound with its values, some of them ahead of it.

How the values were obtained:
Gal3 = conditions: cited from earlier work
Gal3 CRD [1] = biological target: T1, Gal3 CRD (Homo sapiens, UniProt P17931); design: method as in PMID 31094416; conditions: ref 46; cited from earlier work
T1 construct: The carbohydrate recognition domain (Pro106-Ile250) of human Gal3 (Gal3 CRD); His-tag; made in house; host or cells: Escherichia coli BL21(DE3)
T1 sequence (P17931 106-250): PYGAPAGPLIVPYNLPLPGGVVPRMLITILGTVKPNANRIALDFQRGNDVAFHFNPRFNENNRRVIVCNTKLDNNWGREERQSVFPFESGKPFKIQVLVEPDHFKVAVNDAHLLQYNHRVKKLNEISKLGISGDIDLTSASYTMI

[2] = biological target: T2, full-length Gal3 (Gal3 FL) (Homo sapiens, UniProt P17931); assay: Microscale thermophoresis (MST), Gal3 FL; assay type: binding
T2 construct: Recombinant human galectin-3 (Gal3, 26 kDa, full-length galectin-3 or Gal3 FL); made in house
T2 sequence (P17931 whole entry): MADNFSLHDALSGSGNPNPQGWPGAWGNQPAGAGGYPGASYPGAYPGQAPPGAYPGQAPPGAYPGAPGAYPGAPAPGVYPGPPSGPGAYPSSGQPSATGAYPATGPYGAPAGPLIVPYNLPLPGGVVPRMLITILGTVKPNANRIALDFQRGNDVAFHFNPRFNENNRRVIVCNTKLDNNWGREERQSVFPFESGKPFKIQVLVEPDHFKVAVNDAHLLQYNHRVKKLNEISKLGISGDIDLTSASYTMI
Excerpt: Microscale thermophoresis (MST) is a very sensitive, immobilization-free interaction technique that is based on the speed of migration away from a central point in the capillary that is hit by an infra-red laser at time 0 (Figure 1).
Microscale thermophoresis (MST) is a technique to quantify biomolecular interactions by measuring the directed movement of molecules in a microscopic temperature gradient induced by an infrared laser. The directed movement of molecules in thin capillaries was detected and quantified by means of a red-light fluorophore (NT-647-NHS, with excitation maximum at 647 nm and emission maximum at 670 nm) covalently linked to Gal3 proteins. For labelling, we used two times the concentration of the protein (16 μM Gal3 FL, 43 μM Gal3 CRD) for the fluorophore. Removal of excess fluorphore was combined with buffer exchange into 20 mM Hepes, pH 7.4 with 150 mM NaCl and 0.05% Tween-20.
A two-fold dilution series of ligand concentrations was established ranging from 239 μM to […], with a constant concentration of 4 μM Gal3 FL and 22 μM Gal3 CRD. The samples were loaded into standard glass capillaries and readings were performed with the red light of a Monolith NT.115, with LED power setting of 20% and an MST power setting of 40%. […] The same procedure was repeated for Gal3 CRD and using roscovitine as a ligand. The data were analyzed using the MO Affinity Analysis software v2.2.4.

Gal3 FL [3] = biological target: T3, Gal3 FL (Homo sapiens, UniProt P17931); assay: MST capillary scan, fit to initial fluorescence, Gal3 FL; assay type: binding; conditions: capillary scan values, time point 0, read-out: KD from fit of initial (before thermophoresis) fluorescence
T3 construct: Recombinant human galectin-3 (Gal3, 26 kDa, full-length galectin-3 or Gal3 FL); made in house
T3 sequence (P17931 whole entry): as above
Excerpt: (§1) The large and unwanted initial fluorescence changes (Figure 1D) are unlikely to originate from Trp181 near the lactose-binding site of Gal3 CRD, because the MST was run using red fluorescence excitation and emission wavelengths. Also, although Gal3 FL has three tryptophans (Trp22, Trp26 and Trp181) instead of a single one (Trp181) in Gal3 CRD, it appears less affected (Figure 1A versus D). Therefore, there is more likely an involvement of NT-647-NHS-labelled lysine residues near the binding site of Au^3+TTPS. This involvement of labelled lysines enabled the fit based on the initial fluorescence data (Figure 2). […] Therefore, we initiated tryptophan fluorescence spectroscopy measurements (TFS).
(§2) Microscale thermophoresis (MST) is a technique to quantify biomolecular interactions by measuring the directed movement of molecules in a microscopic temperature gradient induced by an infrared laser. The directed movement of molecules in thin capillaries was detected and quantified by means of a red-light fluorophore (NT-647-NHS, with excitation maximum at 647 nm and emission maximum at 670 nm) covalently linked to Gal3 proteins. […]
(§3) A two-fold dilution series of ligand concentrations was established ranging from 239 μM to […], with a constant concentration of 4 μM Gal3 FL and 22 μM Gal3 CRD. […] The data were analyzed using the MO Affinity Analysis software v2.2.4.

Gal3 CRD [4] = biological target: T1, Gal3 CRD; assay: MST capillary scan, fit to initial fluorescence, Gal3 CRD; assay type: binding
Excerpt: as §1, §2, §3

Gal3 FL [5] = biological target: T3, Gal3 FL; assay: Tryptophan fluorescence spectroscopy (TFS), Gal3 FL; assay type: binding; conditions: 2 μM Gal3 FL; 25 °C; pH 7.4; read-out: KD (TFS, non-linear regression)
Excerpt: (§4) The formation of Gal3–Au^3+TTPS complexes can be followed by the changes in the intrinsic or tryptophan fluorescence spectroscopy. Binding of the metal-based drug to Gal3 FL caused a red shift of the maximum emission wavelength of about 9 nm (339 nm to 348 nm), as well as a decrease in fluorescence intensity. This is indicative of indole side chains of Trp residues being exposed on the protein surface. […] The hyperbolic nature of the binding curves of gold porphyrin to of Gal3 FL and Gal3 CRD is indicative of the presence of a single binding site for the ligand.
(§5) Figure 3 TFS measurements of complex formation with Gal3. […] The data points were plotted as means ± standard error of the mean for three independent experimental data sets.
(§6) Tryptophan fluorescence spectroscopy (TFS) was performed on a Shimadzu spectrofluorometer (Shimadzu, Kyoto, Japan). […] Total fluorescence was calculated after normalization of the fluorescence spectra and corrected for dilution. In order to account for the inner filter and the self-absorption effects, the experiments were always carried out on samples with absorbance (OD280nm) less than 0.05. Absorbance was measured using a spectrophotometer (Beckman, Brea, CA, USA). All measurements were performed at 25 °C, with the temperature of the samples determined in the cuvette with an accuracy of ± 0.2 °C.

Gal3 CRD [6] = biological target: T1, Gal3 CRD; assay: Tryptophan fluorescence spectroscopy (TFS), Gal3 CRD; assay type: binding; conditions: 10 μM Gal3 CRD; 25 °C; pH 7.4; read-out: KD (TFS, non-linear regression)
Excerpt: as §4, §5, §6

Gal3 FL [7] = biological target: T3, Gal3 FL; assay: Isothermal titration calorimetry (ITC), Gal3 FL; assay type: binding; conditions: 22 °C
Excerpt: We used isothermal titration calorimetry (ITC), which is a molecular interaction technique ideal for the reliable determination of stoichiometric ratios in the protein soluble state. […] The reaction is exothermic and enthalpy driven with a heat release of −5363 ± 196.4 cal/mol, indicating a substantial number of non-covalent bonding during complex formation. Moreover, the interaction also profits from a significant entropic contribution of 1956 cal/mol.
A VP-ITC MicroCal instrument (Malvern Panalytical Ltd, Malvern, UK) with cell volume of 1.4253 mL was used at 22 °C for the measurement of the stoichiometric ratio and the enthalpy/entropy contributions to the binding of gold prophyrin to Gal3 FL. Prior to the experiment, the Gal3 FL protein was dialyzed extensively against 20 mM Hepes at pH 7.4 and 150 mM NaCl, the buffer used for the experiment.

Gal3 CRD [8] = biological target: T1, Gal3 CRD; assay: Isothermal titration calorimetry (ITC), Gal3 CRD; assay type: binding; conditions: Gal3 CRD 32.67 μM, also at twice higher concentrations

Compound: OC[C@H]1O[C@@H](O[C@H]2[C@H](O)[C@@H](O)C(O)O[C@@H]2CO)[C@H](O)[C@@H](O)[C@H]1O (mixture of isomers) [lactose]
inhibition of Zn^2+TTPS binding to Gal3 (Gal3; ref 42): did not inhibit

Compound: CD146: cluster of differentiation 146, melanoma cell adhesion molecule, cell surface glycoprotein
affinity for Gal3 CRD (Gal3 CRD [1]): unmeasurable

Compound: CC[C@H](CO)Nc1nc(NCc2ccccc2)c2ncn(C(C)C)c2n1 [roscovitine, reference compound]
affinity between Gal3 FL and ligand (MST) ([2]; Gal3 FL, MST): no affinity

Compound: CC(=O)N[C@H]1C(O)O[C@H](CO)[C@@H](O[C@@H]2O[C@H](CO)[C@H](O)[C@H](O)[C@H]2O)[C@@H]1O (some centres unmarked) [N-acetyllactosamine]
Kd (Gal3; ref 43): 25 µM
Kd (Gal3; ref 44): 28 µM
Kd (Gal3; ref 45): 112 µM
Kd (Gal3; ref 46): 118 µM

binding after SDS denaturation of Gal3 FL (SD test) ([2]; Gal3 FL denatured with 4% SDS, 40 mM DTT, 95 °C, same concentration series): without observing binding
Kd ([2]; Gal3 FL labelled with NT-647-NHS, 4 μM Gal3 FL, thermophoresis read-out, read-out: KD (MST curves)): 2.84 ± 1.03 µM
Kd (Gal3 FL [3]): 5.83 ± 0.65 µM
Kd (Gal3 CRD [4]; Gal3 CRD, capillary scan values, time point 0, read-out: KD from fit of initial (before thermophoresis) fluorescence): 25.9 ± 0.65 µM
weaker binding of truncated Gal3 (CRD) versus Gal3 FL (Gal3 CRD [4]; comparison of initial fluorescence fits): at Least 5 fold
Kd (Gal3 FL [5]): 2.6 ± 0.6 µM
Kd (Gal3 CRD [6]): 22.7 ± 5.6 µM
change in Gibbs free energy (ΔG) (ITC) (Gal3 FL [7]): -7.326 kcal/mol
entropic contribution (ITC) (Gal3 FL [7]): 1.956 kcal/mol
heat release (enthalpy) (ITC) (Gal3 FL [7]): -5.363 ± 0.1964 kcal/mol
stoichiometry (ITC) (Gal3 FL [7]): 1.02 ± 0.03 sites
Kd (Gal3 FL [7]; 20 mM Hepes pH 7.4, 150 mM NaCl, read-out: equilibrium dissociation constant KD (ITC)): 3.78 ± 0.27 µM
ITC titration result with Gal3 CRD (Gal3 CRD [8]): no measurable results
Compound: 5,10,15,20-Tetrakis(4-sulfonatophenyl)-porphyrin-Au(III)chloride [Au^3+TPPS]
